Laboratory results: paper PMC6128713 (Saudi Pharmaceutical Journal : SPJ, 2018)
Like-named read-outs stand apart in the source and are kept apart here. Blank lines part the entries; values can stand above or below the molecule they belong to.

Legend:
[1] = test system: glutamate-induced 45Ca2+ uptake into synaptosomes of rat brain cortex; assay: Effect on glutamate-induced 45Ca2+ uptake into synaptosomes of rat brain cortex; format: biochemical, Wistar rats; conditions: for Percentage 45Ca2+ of Control (Control – 100%): 200 μM glutamate, 5 min, 37 °C
[2] = format: physicochemical

mole fraction solubility (x) ([2]; 1-octanol, 293.15 K): 2.16 x · 10^4 | A, parameter of the correlation equation lnx=A-B/T ([2]; 1-octanol, 293.15–313.15 K): 5.83 ± 0.11 | B, parameter of the correlation equation lnx=A-B/T ([2]; 1-octanol, 293.15–313.15 K): 4179 ± 45 | mole fraction solubility (x) ([2]; 1-octanol, 298.15 K): 2.74 x · 10^4 | ΔGsol0, standard molar dissolution Gibbs energy ([2]; 1-octanol, 298.15 K): 4.85 kcal/mol | ΔHsol0, standard molar dissolution enthalpy ([2]; 1-octanol, 298.15 K): 8.29 kcal/mol | ΔSsol0, standard molar dissolution entropy ([2]; 1-octanol, 298.15 K): 69.9 J/mol⋅K | mole fraction solubility (x) ([2]; 1-octanol, 303.15 K): 3.48 x · 10^4 | mole fraction solubility (x) ([2]; 1-octanol, 308.15 K): 4.28 x · 10^4 | mole fraction solubility (x) ([2]; 1-octanol, 313.15 K): 5.40 x · 10^4 | mole fraction solubility (x) ([2]; Buffer pH 7.4, 293.15 K): 1.69 x · 10^6 | A, parameter of the correlation equation lnx=A-B/T ([2]; Buffer pH 7.4, 293.15–313.15 K): −7.76 ± 0.04 | B, parameter of the correlation equation lnx=A-B/T ([2]; Buffer pH 7.4, 293.15–313.15 K): 1649 ± 12 | mole fraction solubility (x) ([2]; Buffer pH 7.4, 298.15 K): 1.86 x · 10^6 | ΔGsol0, standard molar dissolution Gibbs energy ([2]; Buffer pH 7.4, 298.15 K): 7.82 kcal/mol | ΔHsol0, standard molar dissolution enthalpy ([2]; Buffer pH 7.4, 298.15 K): 3.27 kcal/mol | ΔSsol0, standard molar dissolution entropy ([2]; Buffer pH 7.4, 298.15 K): -63.73 J/mol⋅K | mole fraction solubility (x) ([2]; Buffer pH 7.4, 303.15 K): 2.04 x · 10^6 | mole fraction solubility (x) ([2]; Buffer pH 7.4, 308.15 K): 2.23 x · 10^6 | mole fraction solubility (x) ([2]; Buffer pH 7.4, 313.15 K): 2.42 x · 10^6 | mole fraction solubility (x) ([2]; Hexane, 293.15 K): 7.96 x · 10^6 | A, parameter of the correlation equation lnx=A-B/T ([2]; Hexane, 293.15–313.15 K): −1.25 ± 0.18 | B, parameter of the correlation equation lnx=A-B/T ([2]; Hexane, 293.15–313.15 K): 3073 ± 39 | mole fraction solubility (x) ([2]; Hexane, 298.15 K): 9.41 x · 10^6 | ΔGsol0, standard molar dissolution Gibbs energy ([2]; Hexane, 298.15 K): 6.84 kcal/mol | ΔHsol0, standard molar dissolution enthalpy ([2]; Hexane, 298.15 K): 6.12 kcal/mol | ΔSsol0, standard molar dissolution entropy ([2]; Hexane, 298.15 K): -6.7 J/mol⋅K | mole fraction solubility (x) ([2]; Hexane, 303.15 K): 11.41 x · 10^6 | mole fraction solubility (x) ([2]; Hexane, 308.15 K): 13.26 x · 10^6 | mole fraction solubility (x) ([2]; Hexane, 313.15 K): 15.50 x · 10^6 | increase of solubility in hexane over buffer solution ([2]; standard temperature): 5 times
SMILES: CN1CCc2c(c3ccccc3n2CCc2n[nH]c(=S)n2C)C1 [Compound I, 4-Methyl-5-[2-(2-methyl-1,2,3,4-tetrahydropyrido[4,3-b]indol-5-yl)ethyl]-2,4-dihydro[1,2,4]triazole-3-thione]
Percentage 45Ca2+ of Control (Control – 100%) ([1]; compound 0.1 μM): 90.5 ± 5.1% | Percentage 45Ca2+ of Control (Control – 100%) ([1]; compound 0.5 μM): 94.8 ± 3.0% | Percentage 45Ca2+ of Control (Control – 100%) ([1]; compound 1 μM): 94.5 ± 11.8% | Percentage 45Ca2+ of Control (Control – 100%) ([1]; compound 5 μM): 80.0 ± 3.0% | Percentage 45Ca2+ of Control (Control – 100%) ([1]; compound 10 μM): 69.9 ± 4.4% | Percentage 45Ca2+ of Control (Control – 100%) ([1]; compound 50 μM): 90.0 ± 6.1% | Percentage 45Ca2+ of Control (Control – 100%) ([1]; compound 100 μM): 104.2 ± 12.8% | effect on glutamate-induced calcium ion uptake, in words ([1]; concentration of 0.1–1 μM): did not affect | effect on glutamate-induced calcium ion uptake, in words ([1]; concentrations of 5–50 μM): inhibited calcium ion uptake

SMILES: Cc1ccc2c(c1)c1c(n2CCc2ccc(C)nc2)CCN(C)C1 [Dimebon, reference compound]
Percentage 45Ca2+ of Control (Control – 100%) ([1]; compound 0.1 μM): 120.5 ± 3.3% | Percentage 45Ca2+ of Control (Control – 100%) ([1]; compound 0.5 μM): 64.4 ± 12.4% | Percentage 45Ca2+ of Control (Control – 100%) ([1]; compound 1 μM): 61.3 ± 8.1% | Percentage 45Ca2+ of Control (Control – 100%) ([1]; compound 5 μM): 83.2 ± 4.1% | Percentage 45Ca2+ of Control (Control – 100%) ([1]; compound 10 μM): 89.3 ± 1.2% | Percentage 45Ca2+ of Control (Control – 100%) ([1]; compound 50 μM): 98.7 ± 8.8% | Percentage 45Ca2+ of Control (Control – 100%) ([1]; compound 100 μM): 132.0 ± 2.9%
